# Measured values taken from ChEMBL document CHEMBL1201862, “PubChem BioAssay data set” (2004).
#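 Step 1: Grow cells in 96-well plates. Step 2: Expose to compound for 48 hours at 5 concentrations. Step 3: Interpolate endpoints linearly; if unreached, use highest concentration. GI50: concentration for 50% inhibition of growth.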 Active and inactive are the calls of the source. Cut-off read from the data, not from the text of the source: active = GI50 up to about 1.1 µM and inactive = higher.
# Columns and labels:
# Assay in all cases: growth of human tumour cells (NCI), 48 h
# SK-OV-3 = system: SK-OV-3
# MDA-N = system: MDA-N
# NCI-H23 = system: NCI-H23
# SF-295 = system: SF-295
# SK-MEL-28 = system: SK-MEL-28
# SF-539 = system: SF-539
# MDA-MB-435 = system: MDA-MB-435
# HOP-62 = system: HOP-62
# KM12 = system: KM12
# NCI-H460 = system: NCI-H460
# EKVX = system: EKVX
# Malme-3M = system: Malme-3M
# SW-620 = system: SW-620
# Hs-578T = system: Hs-578T
# OVCAR-8 = system: OVCAR-8
# T47D = system: T47D
# SK-MEL-2 = system: SK-MEL-2
# U-251 = system: U-251
# NCI-H522 = system: NCI-H522
# SNB-75 = system: SNB-75
# OVCAR-4 = system: OVCAR-4
# SNB-19 = system: SNB-19
# SF-268 = system: SF-268
# A498 = system: A498
# COLO 205 = system: COLO 205
# PC-3 = system: PC-3
# SN12C = system: SN12C
# HT-29 = system: HT-29
# NCI/ADR-RES = system: NCI/ADR-RES
# SR = system: SR
# IGROV-1 = system: IGROV-1
# HL-60 = system: HL-60
# HCC 2998 = system: HCC 2998
# A549 = system: A549
# TK-10 = system: TK-10
# MOLT-4 = system: MOLT-4
# CAKI-1 = system: CAKI-1
# 786-0 = system: 786-0
# HOP-92 = system: HOP-92
# OVCAR-3 = system: OVCAR-3
# M14 = system: M14
# UO-31 = system: UO-31
# OVCAR-5 = system: OVCAR-5
# NCI-H226 = system: NCI-H226
# LOX IMVI = system: LOX IMVI
# HCT-15 = system: HCT-15
# K562 = system: K562
# RPMI-8226 = system: RPMI-8226
# RXF 393 = system: RXF 393
# BT-549 = system: BT-549
# MDA-MB-231 = system: MDA-MB-231
# UACC-62 = system: UACC-62
# DU-145 = system: DU-145
# UACC-257 = system: UACC-257
# SK-MEL-5 = system: SK-MEL-5
# ACHN = system: ACHN
# HCT-116 = system: HCT-116
# MCF7 = system: MCF7
# CCRF-CEM = system: CCRF-CEM
smiles,measurement,setting,value
CC(C)(C)OC(=O)N1C(C2=COc3ccccc3O2)=COc2cccnc21,GI50,SK-OV-3,1.81 µM (inactive)
same,GI50,MDA-N,1.99 µM (inactive)
same,GI50,NCI-H23,1.61 µM (inactive)
same,GI50,SF-295,1.95 µM (inactive)
same,GI50,SK-MEL-28,1.74 µM (inactive)
same,GI50,SF-539,2 µM (inactive)
same,GI50,MDA-MB-435,1.74 µM (inactive)
same,GI50,HOP-62,1.85 µM (inactive)
same,GI50,KM12,1.78 µM (inactive)
same,GI50,NCI-H460,1.74 µM (inactive)
same,GI50,EKVX,1.38 µM (inactive)
same,GI50,Malme-3M,1.45 µM (inactive)
same,GI50,SW-620,2.01 µM (inactive)
same,GI50,Hs-578T,3.64 µM (inactive)
same,GI50,OVCAR-8,1.9 µM (inactive)
same,GI50,T47D,1.42 µM (inactive)
same,GI50,SK-MEL-2,1.94 µM (inactive)
same,GI50,U-251,1.73 µM (inactive)
same,GI50,NCI-H522,1.61 µM (inactive)
same,GI50,SNB-75,15.7 µM (inactive)
same,GI50,OVCAR-4,1.6 µM (inactive)
same,GI50,SNB-19,2.04 µM (inactive)
same,GI50,SF-268,1.5 µM (inactive)
same,GI50,A498,1.71 µM (inactive)
same,GI50,COLO 205,1.9 µM (inactive)
same,GI50,PC-3,1.96 µM (inactive)
same,GI50,SN12C,1.71 µM (inactive)
same,GI50,HT-29,1.91 µM (inactive)
same,GI50,NCI/ADR-RES,2 µM (inactive)
same,GI50,SR,2.18 µM (inactive)
same,GI50,IGROV-1,1.62 µM (inactive)
same,GI50,HL-60,1.8 µM (inactive)
same,GI50,HCC 2998,1.69 µM (inactive)
same,GI50,A549,1.98 µM (inactive)
same,GI50,TK-10,2.75 µM (inactive)
same,GI50,MOLT-4,2.06 µM (inactive)
same,GI50,CAKI-1,2.13 µM (inactive)
same,GI50,786-0,1.83 µM (inactive)
same,GI50,HOP-92,1.25 µM (inactive)
same,GI50,OVCAR-3,1.72 µM (inactive)
same,GI50,M14,1.79 µM (inactive)
same,GI50,UO-31,1.64 µM (inactive)
same,GI50,OVCAR-5,1.65 µM (inactive)
same,GI50,NCI-H226,1.71 µM (inactive)
same,GI50,LOX IMVI,1.74 µM (inactive)
same,GI50,HCT-15,1.77 µM
same,GI50,K562,1.99 µM (inactive)
same,GI50,RPMI-8226,1.55 µM (inactive)
same,GI50,RXF 393,1.62 µM (inactive)
same,GI50,BT-549,1.59 µM (inactive)
same,GI50,MDA-MB-231,1.81 µM (inactive)
same,GI50,UACC-62,1.58 µM (inactive)
same,GI50,DU-145,1.33 µM (inactive)
same,GI50,UACC-257,1.75 µM (inactive)
same,GI50,SK-MEL-5,1.75 µM (inactive)
same,GI50,ACHN,1.65 µM (inactive)
same,GI50,HCT-116,1.99 µM (inactive)
same,GI50,MCF7,1.66 µM (inactive)
CC(C)C(Br)C(=O)NCC(=O)O (configuration not stated),GI50,SK-OV-3,> 100 µM (inactive)
same,GI50,MDA-N,> 100 µM (inactive)
same,GI50,NCI-H23,> 100 µM (inactive)
same,GI50,SF-295,> 100 µM (inactive)
same,GI50,SK-MEL-28,> 100 µM (inactive)
same,GI50,SF-539,> 100 µM (inactive)
same,GI50,MDA-MB-435,> 100 µM (inactive)
same,GI50,HOP-62,> 100 µM (inactive)
same,GI50,KM12,> 100 µM (inactive)
same,GI50,NCI-H460,> 100 µM (inactive)
same,GI50,EKVX,> 100 µM (inactive)
same,GI50,Malme-3M,> 100 µM (inactive)
same,GI50,SW-620,> 100 µM (inactive)
same,GI50,Hs-578T,> 100 µM (inactive)
same,GI50,CCRF-CEM,> 100 µM (inactive)
same,GI50,OVCAR-8,> 100 µM (inactive)
same,GI50,T47D,> 100 µM (inactive)
same,GI50,SK-MEL-2,> 100 µM (inactive)
same,GI50,U-251,> 100 µM (inactive)
same,GI50,NCI-H522,> 100 µM (inactive)
same,GI50,SNB-75,> 100 µM (inactive)
same,GI50,OVCAR-4,> 100 µM (inactive)
same,GI50,SNB-19,> 100 µM (inactive)
same,GI50,SF-268,> 100 µM (inactive)
same,GI50,A498,> 100 µM (inactive)
same,GI50,COLO 205,> 100 µM (inactive)
same,GI50,PC-3,> 100 µM (inactive)
same,GI50,SN12C,> 100 µM (inactive)
same,GI50,HT-29,> 100 µM (inactive)
same,GI50,NCI/ADR-RES,> 100 µM (inactive)
same,GI50,SR,> 100 µM (inactive)
same,GI50,IGROV-1,> 100 µM (inactive)
same,GI50,HL-60,0.245 µM (active)
same,GI50,A549,> 100 µM (inactive)
same,GI50,TK-10,> 100 µM (inactive)
same,GI50,MOLT-4,> 100 µM (inactive)
same,GI50,CAKI-1,> 100 µM (inactive)
same,GI50,786-0,> 100 µM (inactive)
same,GI50,HOP-92,> 100 µM (inactive)
same,GI50,OVCAR-3,> 100 µM (inactive)
same,GI50,M14,> 100 µM (inactive)
same,GI50,UO-31,> 100 µM (inactive)
same,GI50,OVCAR-5,> 100 µM (inactive)
same,GI50,NCI-H226,> 100 µM (inactive)
same,GI50,LOX IMVI,> 100 µM (inactive)
same,GI50,HCT-15,> 100 µM
same,GI50,K562,> 100 µM (inactive)
same,GI50,RPMI-8226,> 100 µM (inactive)
same,GI50,RXF 393,> 100 µM (inactive)
same,GI50,BT-549,> 100 µM (inactive)
same,GI50,MDA-MB-231,> 100 µM (inactive)
same,GI50,UACC-62,> 100 µM (inactive)
same,GI50,DU-145,> 100 µM (inactive)
same,GI50,UACC-257,> 100 µM (inactive)
same,GI50,SK-MEL-5,> 100 µM (inactive)
same,GI50,ACHN,> 100 µM (inactive)
same,GI50,HCT-116,> 100 µM (inactive)
same,GI50,MCF7,> 100 µM (inactive)
C[N+]1(Cc2ccc(Cl)c(Cl)c2)CCCC1C1CCCN(Cc2ccc(Cl)c(Cl)c2)C1 (configuration not stated),GI50,SK-OV-3,> 100 µM (inactive)
same,GI50,MDA-N,> 100 µM (inactive)
same,GI50,NCI-H23,> 100 µM (inactive)
same,GI50,SF-295,> 100 µM (inactive)
same,GI50,SK-MEL-28,> 100 µM (inactive)
same,GI50,SF-539,> 100 µM (inactive)
same,GI50,MDA-MB-435,> 100 µM (inactive)
same,GI50,HOP-62,> 100 µM (inactive)
same,GI50,KM12,> 100 µM (inactive)
same,GI50,NCI-H460,> 100 µM (inactive)
same,GI50,EKVX,46 µM (inactive)
same,GI50,Malme-3M,82.4 µM (inactive)
same,GI50,SW-620,> 100 µM (inactive)
same,GI50,Hs-578T,> 100 µM (inactive)
same,GI50,OVCAR-8,> 100 µM (inactive)
same,GI50,T47D,> 100 µM (inactive)
same,GI50,SK-MEL-2,> 100 µM (inactive)
same,GI50,U-251,> 100 µM (inactive)
same,GI50,NCI-H522,> 100 µM (inactive)
same,GI50,SNB-75,> 100 µM (inactive)
same,GI50,OVCAR-4,> 100 µM (inactive)
same,GI50,SNB-19,> 100 µM (inactive)
same,GI50,SF-268,> 100 µM (inactive)
same,GI50,A498,> 100 µM (inactive)
same,GI50,COLO 205,> 100 µM (inactive)
same,GI50,PC-3,> 100 µM (inactive)
same,GI50,SN12C,> 100 µM (inactive)
same,GI50,HT-29,> 100 µM (inactive)
same,GI50,NCI/ADR-RES,> 100 µM (inactive)
same,GI50,SR,> 100 µM (inactive)
same,GI50,IGROV-1,70 µM (inactive)
same,GI50,HCC 2998,> 100 µM (inactive)
same,GI50,A549,> 100 µM (inactive)
same,GI50,TK-10,> 100 µM (inactive)
same,GI50,MOLT-4,> 100 µM (inactive)
same,GI50,CAKI-1,> 100 µM (inactive)
same,GI50,786-0,> 100 µM (inactive)
same,GI50,HOP-92,> 100 µM (inactive)
same,GI50,OVCAR-3,> 100 µM (inactive)
same,GI50,M14,> 100 µM (inactive)
same,GI50,UO-31,> 100 µM (inactive)
same,GI50,OVCAR-5,> 100 µM (inactive)
same,GI50,LOX IMVI,> 100 µM (inactive)
same,GI50,HCT-15,> 100 µM
same,GI50,K562,52.4 µM (inactive)
same,GI50,RPMI-8226,> 100 µM (inactive)
same,GI50,RXF 393,> 100 µM (inactive)
same,GI50,BT-549,> 100 µM (inactive)
same,GI50,MDA-MB-231,> 100 µM (inactive)
same,GI50,UACC-62,> 100 µM (inactive)
same,GI50,DU-145,> 100 µM (inactive)
same,GI50,UACC-257,> 100 µM (inactive)
same,GI50,SK-MEL-5,32.2 µM (inactive)
same,GI50,ACHN,> 100 µM (inactive)
same,GI50,HCT-116,> 100 µM (inactive)
same,GI50,MCF7,> 100 µM (inactive)
